Among the data in patent US12173007B2, “Imidazopyridazine IL-17 inhibitor compounds” (Janssen Pharmaceutica NV, priority 2021, dated 2024) are IC50 values, retold here.

The target in test [1] is IL-17A(FLAG-Tagged): IL-17RA(His-Tagged) binding (Homo sapiens, UniProt Q16552, K93Q). In words: IL-17A(FLAG-tagged):IL-17RA(His-tagged) binding disruption Eu-HTRF assay, Protocol 2. Particulars: FLAG-IL-17A 1 nM; average if tested more than once. The text has this: IL-17A(FLAG-Tagged): IL-17RA(His-Tagged) Binding Disruption Eu-HTRF Assay
Sequence of UniProt Q16552 (Q16552 with tags, fused parts or gaps K93Q): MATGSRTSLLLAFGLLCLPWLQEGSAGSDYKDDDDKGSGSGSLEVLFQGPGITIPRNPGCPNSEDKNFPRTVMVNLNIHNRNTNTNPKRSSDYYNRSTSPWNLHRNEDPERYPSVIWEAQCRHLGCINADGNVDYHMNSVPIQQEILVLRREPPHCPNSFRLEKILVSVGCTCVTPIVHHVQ
An antibody directed against the FLAG tag of IL-17A (SEQ ID NO: 1) is labeled with the HTRF donor chromophore (Europium-cryptate). IL-17A is present as a dimer that is “locked into” this quaternary structure due to the formation of loop-spanning […] disulfide bridges. The construct of IL-17RA used in the assay excludes the […] portion of the receptor and is fused to a C-terminal 10×His tag (SEQ ID NO:2). An antibody directed against the His tag of the IL-17RA chimera is labeled with the HTRF acceptor chromophore (“D2”). The fluorescence-resonance energy transfer (FRET) depends on the vicinity of the donor chromophore to the acceptor, and interruption of the binding between the IL-17A and IL-17RA causes the reduction/loss of FRET. Therefore, this assay allows to evaluate the compound effect on the binding IL-17A and IL-17RA by monitoring the fluorescence intensity of donor vs acceptor. The assay was run using either Protocol 1 or Protocol 2 as described below.
Protocol 2. 40 nl of 2-fold serial diluted compound solution for total 22 dilution points is added into each well of a 1536-well, white, low-volume, non-binding plate (Greiner #782904), then 2 μl of FLAG tagged IL-17A at 2×final concentration (1 nM) in solution of PBS+0.01% Triton-X100 is added to each well. The assay plate is briefly centrifuged then incubated for 1 h at rt. A mixed solution is prepared containing 2×5 nM 10HIS×IL-17RA, 2×2.5 nM Eu-anti-FLAG (CISBIO), 2×5 nM D2-anti-HIS (CISBIO) in PBS+0.01% Triton-X100+200 mM Potassium Fluoride (Sigma 60238) and 2 μl of mix is added to each well of the assay plate. The plate is briefly centrifuged then incubated for 2 h at rt. The HTRF intensities at the wavelength of donor (615 nm) and acceptor (665 nm) are measured using BMG Pherastar. The ratio between intensities at two wavelengths is calculated and plotted against the compound concentration and the data is fitted to a one-site competition model to yield IC50 of the compound.

The subject of test [2] is IL-17A-induced G-CSF production in human normal keratinocyte (NHK). In words: NHK assay: IL-17A-induced G-CSF production in normal human keratinocytes. The class given is cell-based. Particulars: Homo sapiens, Keratinocyte, 24 h, IL-17A 5 ng/mL, G-CSF by HTRF, average if tested more than once. As to the method: IL-17A acts directly on keratinocytes through binding to dimeric receptor IL-17RA/RC and drives the production of a number of inflammatory mediators known to be elevated in psoriasis lesional tissue. IL-17A small molecule inhibitors that block the IL-17A to interact with IL-17R would inhibit the IL-17A signaling in its targeted cells such as keratinocytes. The compound functional activity is evaluated for its impact on IL-17A-induced G-CSF production in human normal keratinocyte (NHK).
Adult normal human keratinocytes are cultured in keratinocyte growth medium (Lonza) in a flask till reaching ˜90% confluence, then cells are transferred to a 384-well plate at density of 3000-4000 cell/well. Recombinant human IL-17A (Gibco PHC9174) is pre-incubated with titrated compound or DMSO for 1 h at rt then added to the cell culture plate. The final concentration of IL-17A is 5 ng/mL and DMSO is 0.2%, in the culture containing 5% FBS. Cells are cultured/treated for 24 h at 37° C. Supernatants are collected and G-CSF production is measured through HTRF technology using Human G-CSF Kit (CisBio). G-CSF concentration was extrapolated from the standard curve and IC50 is determined using GraphPad Prism. Cell viability is also evaluated using CellTiter-Glo kit (Promega) and effect of compound on cell viability is compared to DMSO control.
(In general: Time-resolved FRET reads energy transfer from a long-lived donor to a nearby acceptor.)

One may read the IC50 as the concentration needed to halve the response being measured. A higher IC50 goes with a need for much substance. As to `[2H]C1([2H])NC(=O)N([C@H](COC2CC2)c2cnn3cc([C@@H](NC(=O)c4nonc4OC)C4CCC(F)(F)CC4)nc3c2)C([2H])([2H])C1(F)F` [Example 69, N—((S)-(7-((S)-2-Cyclopropoxy-1-(5,5-difluoro-2-oxotetrahydropyrimidin-1(2H)-yl-4,4,6,6-d4)ethyl)imidazo[1,2-b]pyridazin-2-yl)(4,4-difluorocyclohexyl)methyl)-4-methoxy-1,2,5-oxadiazole-3-carboxamide], the half-maximal inhibitory concentration (IC50) in test [1] and in test [2] was less than 0.05 µM each time.
With `COC[C@H](c1cnn2cc([C@@H](NC(=O)c3nonc3C3CC3)C(C3CC3)C3CC3)nc2c1)N1CC(F)(F)CNC1=O` [Example 103, 4-Cyclopropyl-N—((S)-2,2-dicyclopropyl-1-(7-((S)-1-(5,5-difluoro-2-oxotetrahydropyrimidin-1(2H)-yl)-2-methoxyethyl)imidazo[1,2-b]pyridazin-2-yl)ethyl)-1,2,5-oxadiazole-3-carboxamide], the IC50 in test [1] and in test [2] was less than 0.05 µM in each case.
In the case of `[2H]C1([2H])NC(=O)N([C@H](COC)c2cnn3cc([C@H](CCC(C)(C)C(F)(F)F)NC(=O)c4nonc4C(F)F)nc3c2)C([2H])([2H])C1(F)F` [Example 81, N—((S)-1-(7-((S)-1-(5,5-Difluoro-2-oxotetrahydropyrimidin-1(2H)-yl-4,4,6,6-d4)-2-methoxyethyl)imidazo[1,2-b]pyridazin-2-yl)-5,5,5-trifluoro-4,4-dimethylpentyl)-4-(difluoromethyl)-1,2,5-oxadiazole-3-carboxamide], the 50% inhibitory concentration (IC50) in test [1] and in test [2] was less than 0.05 µM throughout.
For `COC[C@H](c1cnn2cc(C(CCC(C)(C)C(F)(F)F)NC(=O)c3nonc3C)nc2c1)N1CC(F)(F)CNC1=O` (single isomer, unassigned) [Example 45, N—((S*)-1-(7-((S)-1-(5,5-Difluoro-2-oxotetrahydropyrimidin-1(2H)-yl)-2-methoxyethyl)imidazo [1,2-b]pyridazin-2-yl)-5,5,5-trifluoro-4,4-dimethylpentyl)-4-methyl-1,2,5-oxadiazole-3-carboxamide], the IC50 in test [1] and in test [2] was less than 0.05 µM in each case.
`COC[C@H](c1cnn2cc([C@@H](NC(=O)c3nonc3C(F)(F)F)C3CCC(F)(F)CC3)nc2c1)N1CC(F)(F)CNC1=O` [Example 84, N—((S)-(7-((S)-1-(5,5-Difluoro-2-oxotetrahydropyrimidin-1(2H)-yl)-2-methoxyethyl)imidazo[1,2-b]pyridazin-2-yl)(4,4-difluorocyclohexyl)methyl)-4-(trifluoromethyl)-1,2,5-oxadiazole-3-carboxamide]: the half-inhibitory concentration (IC50) in test [1] and in test [2] was less than 0.05 µM throughout.
Regarding `Cc1nonc1C(=O)N[C@@H](CCC(C)(C)C(F)(F)F)c1cn2ncc(CN3CC(F)(F)CNC3=O)cc2n1` [Example 115, (S)—N-(1-(7-((5,5-Difluoro-2-oxotetrahydropyrimidin-1(2H)-yl)methyl)imidazo[1,2-b]pyridazin-2-yl)-5,5,5-trifluoro-4,4-dimethylpentyl)-4-methyl-1,2,5-oxadiazole-3-carboxamide], the half-inhibitory concentration (IC50) is less than 0.05 µM in test [1] and 0.05 to 0.1 µM in test [2].
Turning to `[2H]C1([2H])NC(=O)N([C@H](COC2CC2)c2cnn3cc([C@@H](NC(=O)c4nonc4C(F)F)C4CCC(F)(F)CC4)nc3c2)C([2H])([2H])C1(F)F` [Example 82, N—((S)-(7-((S)-2-Cyclopropoxy-1-(5,5-difluoro-2-oxotetrahydropyrimidin-1(2H)-yl-4,4,6,6-d4)ethyl)imidazo[1,2-b]pyridazin-2-yl)(4,4-difluorocyclohexyl)methyl)-4-(difluoromethyl)-1,2,5-oxadiazole-3-carboxamide], the IC50 in test [1] and in test [2] was less than 0.05 µM throughout.
As to `[2H]C1([2H])NC(=O)N([C@H](COC)c2cnn3cc([C@H](CCC(C)(C)C(F)(F)F)NC(=O)c4nonc4OC)nc3c2)C([2H])([2H])C1(F)F` [Example 73, N—((S)-1-(7-((S)-1-(5,5-Difluoro-2-oxotetrahydropyrimidin-1(2H)-yl-4,4,6,6-d4)-2-methoxyethyl)imidazo[1,2-b]pyridazin-2-yl)-5,5,5-trifluoro-4,4-dimethylpentyl)-4-methoxy-1,2,5-oxadiazole-3-carboxamide], the IC50 in test [1] and in test [2] was less than 0.05 µM each time.
As to `COC[C@H](c1cnn2cc([C@@H](NC(=O)c3nonc3C3CC3)[C@H](C)OC3CC3)nc2c1)N1CC(F)(F)CNC1=O` (relative stereo) [Example 55, N-((1R*,2S*)-2-cyclopropoxy-1-(7-((S)-1-(5,5-difluoro-2-oxotetrahydropyrimidin-1(2H)-yl)-2-methoxyethyl)imidazo[1,2-b]pyridazin-2-yl)propyl)-4-cyclopropyl-1,2,5-oxadiazole-3-carboxamide], the IC50 in test [1] and in test [2] was greater than 0.1 µM throughout.
Take `COC[C@H](c1cnn2cc([C@@H](NC(=O)c3nonc3C3CC3(F)F)C3CCC(F)(F)CC3)nc2c1)N1CC(F)(F)CNC1=O` (single isomer, unassigned) [Example 128, N—((S)-(7-((S)-1-(5,5-Difluoro-2-oxotetrahydropyrimidin-1(2H)-yl)-2-methoxyethyl)imidazo[1,2-b]pyridazin-2-yl)(4,4-difluorocyclohexyl)methyl)-4-((R*)-2,2-difluorocyclopropyl)-1,2,5-oxadiazole-3-carboxamide]: the IC50 in test [1] and in test [2] was less than 0.05 µM throughout.
Turning to `[2H]C1([2H])NC(=O)N([C@H](COC)c2cnn3cc([C@H](CCC(C)(C)C(F)(F)F)NC(=O)c4ncnn4C(C)C)nc3c2)C([2H])([2H])C1(F)F` [Example 112, N—((S)-1-(7-((S)-1-(5,5-Difluoro-2-oxotetrahydropyrimidin-1(2H)-yl-4,4,6,6-d4)-2-methoxyethyl)imidazo[1,2-b]pyridazin-2-yl)-5,5,5-trifluoro-4,4-dimethylpentyl)-1-isopropyl-1H-1,2,4-triazole-5-carboxamide], the IC50 in test [1] was less than 0.05 µM; in test [2], 0.05 to 0.1 µM.
Taken in the same sequence, the figures for `[2H]C1([2H])NC(=O)N([C@H](COC)c2cnn3cc([C@H](CCC(C)(C)C(F)(F)F)NC(=O)c4nonc4C)nc3c2)C([2H])([2H])C1(F)F` [Example 74, N—((S)-1-(7-((S)-1-(5,5-Difluoro-2-oxotetrahydropyrimidin-1(2H)-yl-4,4,6,6-d4)-2-methoxyethyl)imidazo[1,2-b]pyridazin-2-yl)-5,5,5-trifluoro-4,4-dimethylpentyl)-4-methyl-1,2,5-oxadiazole-3-carboxamide] were less than 0.05 µM and less than 0.05 µM.
Taken in the same sequence, the figures for `Cc1nonc1C(=O)N[C@@H](CCC(C)(C)C(F)(F)F)c1cn2ncc(CN3C[C@H]4[C@@H](CNC3=O)C4(F)F)cc2n1` (relative stereo) [Example 121, N—((S)-1-(7-(((1R*,7S*)-8,8-Difluoro-4-oxo-3,5-diazabicyclo[5.1.0]octan-3-yl)methyl)imidazo[1,2-b]pyridazin-2-yl)-5,5,5-trifluoro-4,4-dimethylpentyl)-4-methyl-1,2,5-oxadiazole-3-carboxamide] were less than 0.05 µM and less than 0.05 µM.
Taken in the same sequence, the figures for `O=C(N[C@H](c1cn2ncc([C@@H](C(F)F)N3CC(F)(F)CNC3=O)cc2n1)C1CCC(F)(F)CC1)c1nonc1C1CC1` [Example 89, 4-Cyclopropyl-N—((S)-(7-((S)-1-(5,5-difluoro-2-oxotetrahydropyrimidin-1(2H)-yl)-2,2-difluoroethyl)imidazo[1,2-b]pyridazin-2-yl)(4,4-difluorocyclohexyl)methyl)-1,2,5-oxadiazole-3-carboxamide] were less than 0.05 µM and less than 0.05 µM.
